Experimental data: patent US11964960B2 (Cornell University, priority 2018, dated 2024)

Columns and labels:
[1] = molecular target: T1, S1PR2 (Mus musculus, UniProt P52592); assay: Immunoblot analysis of S1PR2 levels in liver tissue from mouse BDL study; assay type: in vivo; details: 30 mg/kg daily, orally; liver at end of eight-day study (FIG. 3)
T1 construct: Liver tissues were collected at necropsy, flash frozen, and pulverized; from tissue; host or cells: mouse liver (bile duct ligation model)
T1 sequence (P52592 whole entry): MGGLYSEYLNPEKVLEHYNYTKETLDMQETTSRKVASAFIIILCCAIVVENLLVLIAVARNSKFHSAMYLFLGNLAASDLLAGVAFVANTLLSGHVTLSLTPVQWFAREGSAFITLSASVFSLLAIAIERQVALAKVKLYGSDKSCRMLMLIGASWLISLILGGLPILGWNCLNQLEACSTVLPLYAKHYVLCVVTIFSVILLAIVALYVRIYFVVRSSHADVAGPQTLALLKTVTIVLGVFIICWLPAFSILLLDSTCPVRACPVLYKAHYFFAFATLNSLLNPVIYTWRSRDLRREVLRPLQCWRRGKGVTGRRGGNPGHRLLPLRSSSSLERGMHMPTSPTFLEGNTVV
Excerpt: Liver tissues were collected at necropsy, flash frozen, and pulverized. The powder was resuspended in RIPA lysis buffer with PI, NAF, and sodium deoxy cholate.
Liver samples collected in an identical manner from S1PR2 global KO and WT mice served as positive controls.

[2] = test system: BDL murine models of liver disease; details: multiple studies (Wang 2017; Yang 2015); cited from earlier work
[3] = test system: bile duct ligated mice; assay: Bile duct ligation (BDL) liver fibrosis model; assay type: in vivo, mouse; details: 30 mg/kg daily
Procedure: Six to eight-week-old mice were subjected to bile duct ligation to induce mouse cirrhotic liver injury model. To perform BDL, mice were subjected to a mid-abdominal incision, under general anesthesia. The common bile duct was ligated in two adjacent positions approximately 1 cm from the porta hepatis. The duct was then severed by incision between the two sites of ligation. One day after surgery, mice were administered compounds described herein at […] once daily. Drug delivery was performed by gavage in 0.5% methylcellulose with 0.1 Tween 80. Eight days after BDL surgery mice were harvested, though the harvesting can be performed at any suitable period of time, including 14 days after BDL surgery. Blood serum was collected for liver enzyme analysis and livers were harvested and were either snap frozen or fixed with 4% PFA and cryopreserved in OCT for sectioning and immunohistochemical analysis.
To test whether the compounds described herein act as S1PR2 antagonists in vivo, their effect was tested in BDL, a clinically relevant liver cholestasis model. The common bile duct was ligated and resected as described herein to cause biliary epithelial damage. One day post-surgery, mice were treated daily with 30 mg/kg of compound 29 or JTE-013:
In this double-blind mouse BDL study, the compounds were administered orally by gavage. […]

[4] = test system: WT mice subjected to ischemia/reperfusion (I/R); details: I/R (Kim 2015); cited from earlier work
[5] = molecular target: S1PR2 (Homo sapiens, UniProt O95136); details: Bioorg. Med. Chem. 21: 5373-5382 (2013); cited from earlier work
S1PR2 (Homo sapiens, UniProt O95136), sequence (O95136 whole entry): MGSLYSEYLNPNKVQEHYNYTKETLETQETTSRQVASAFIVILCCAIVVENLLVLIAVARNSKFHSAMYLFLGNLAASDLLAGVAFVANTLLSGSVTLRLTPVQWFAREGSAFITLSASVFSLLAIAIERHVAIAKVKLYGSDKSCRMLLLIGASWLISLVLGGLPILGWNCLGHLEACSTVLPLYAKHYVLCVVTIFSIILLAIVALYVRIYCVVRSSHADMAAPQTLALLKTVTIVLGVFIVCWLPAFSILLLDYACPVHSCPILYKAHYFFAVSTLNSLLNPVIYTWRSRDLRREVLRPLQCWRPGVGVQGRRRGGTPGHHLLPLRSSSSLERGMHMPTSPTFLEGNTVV

[6] = cited from earlier work

SMILES | S1PR2 levels in liver (immunoblot) [1] | liver injury [2] | serum ALB levels ([3]; orally by gavage (FIG. 2C)) | survival / mortality post bile duct ligation ([3]; orally by gavage, from one day post-surgery, eight-day study (FIG. 1A)) | edema ratio [4] | infarct ratio [4] | neurological scores [4] | activity at the S1PR2 receptor [5] | aqueous solubility [6]
Cc1nn(C)c2nc(NNC(=O)Nc3cc(Cl)nc(Cl)c3)cc(C(C)C)c12 [JTE-013] | visible | protect against liver injury | remained constant | lower than that observed for the vehicle arm | dramatic decrease | dramatic decrease | improved |  | 
Cc1cc(C(=O)Cn2cc(C#N)ccc2=O)c(C)n1Cc1ccccc1 [CYM-5520] |  |  |  |  |  |  |  | weak allosteric agonist | poor aqueous solubility
